Measured values taken from the supplement of paper PMC10307832.

Columns and labels:
Assay in all cases: relative viability (nuclei count vs DMSO), 5 days (fraction); higher = more cells survive
NCI-H1755 = system: NCI-H1755
Method in brief: (§1)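 Relative viability is defined as nuclei in treated wells over nuclei in vehicle wells. Duplicate plates were run and medians reported. Lung cancer cell lines in 1536-well plates were dosed by pin tool one day after seeding, with one drug or with a fixed anchor-drug dose plus five library-drug doses (not always all listed) in √10 steps, and nuclei were counted after 5 days.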

PC-3 [JPC-3] = system: PC-3 [JPC-3]
Method in brief: as §1

HCC-15 = system: HCC-15
Method in brief: as §1

PC-14 = system: PC-14
Method in brief: as §1

NCI-H1437 = system: NCI-H1437
Method in brief: as §1

NCI-H1793 = system: NCI-H1793
Method in brief: as §1

UMC-11 = system: UMC-11
Method in brief: as §1

NCI-H3122 = system: NCI-H3122
Method in brief: as §1

IA-LM = system: IA-LM
Method in brief: as §1

A-427 = system: A-427
Method in brief: as §1

NCI-H2405 = system: NCI-H2405
Method in brief: as §1

NCI-H441 = system: NCI-H441
Method in brief: as §1

H3255 = system: H3255
Method in brief: as §1

NCI-H1915 = system: NCI-H1915
Method in brief: as §1

HCC-366 = system: HCC-366
Method in brief: as §1

NCI-H1975 = system: NCI-H1975
Method in brief: as §1

HARA = system: HARA
Method in brief: as §1

NCI-H2009 = system: NCI-H2009
Method in brief: as §1

NCI-H650 = system: NCI-H650
Method in brief: as §1

SK-LU-1 = system: SK-LU-1
Method in brief: as §1

LXF-289 = system: LXF-289
Method in brief: as §1

NCI-H460 = system: NCI-H460
Method in brief: as §1

NCI-H2023 = system: NCI-H2023
Method in brief: as §1

NCI-H596 = system: NCI-H596
Method in brief: as §1

CCCCCCCCCCCC1=C(O)C(=O)C=C(O)C1=O [Embelin] + CS(=O)(=O)N1CCN(Cc2cc3nc(-c4cccc5[nH]ncc45)nc(N4CCOCC4)c3s2)CC1 [Pictilisib] (partner 1 µM)
relative viability (NCI-H1755; first compound 0.08 µM): 0.502
relative viability (NCI-H1755; first compound 0.8 µM): 0.499
relative viability (NCI-H1755; first compound 2.53 µM): 0.367
relative viability (NCI-H1755; first compound 8 µM): 0.333
relative viability (PC-3 [JPC-3]; first compound 0.08 µM): 0.733
relative viability (PC-3 [JPC-3]; first compound 0.8 µM): 0.759
relative viability (PC-3 [JPC-3]; first compound 2.53 µM): 0.787
relative viability (PC-3 [JPC-3]; first compound 8 µM): 0.669
relative viability (HCC-15; first compound 0.08 µM): 0.736
relative viability (HCC-15; first compound 0.8 µM): 0.802
relative viability (HCC-15; first compound 2.53 µM): 0.85
relative viability (HCC-15; first compound 8 µM): 0.743
relative viability (PC-14; first compound 0.08 µM): 0.669
relative viability (PC-14; first compound 0.8 µM): 0.804
relative viability (PC-14; first compound 2.53 µM): 1.16
relative viability (PC-14; first compound 8 µM): 0.717
relative viability (NCI-H1437; first compound 0.08 µM): 0.469
relative viability (NCI-H1437; first compound 0.8 µM): 0.48
relative viability (NCI-H1437; first compound 2.53 µM): 0.5
relative viability (NCI-H1437; first compound 8 µM): 0.364
relative viability (NCI-H1793; first compound 0.08 µM): 0.344
relative viability (NCI-H1793; first compound 0.8 µM): 0.366
relative viability (NCI-H1793; first compound 2.53 µM): 0.361
relative viability (NCI-H1793; first compound 8 µM): 0.218
relative viability (UMC-11; first compound 0.08 µM): 0.852
relative viability (UMC-11; first compound 0.8 µM): 1
relative viability (UMC-11; first compound 2.53 µM): 1.11
relative viability (UMC-11; first compound 8 µM): 0.667
relative viability (NCI-H3122; first compound 0.08 µM): 0.647
relative viability (NCI-H3122; first compound 0.8 µM): 0.605
relative viability (NCI-H3122; first compound 2.53 µM): 0.755
relative viability (NCI-H3122; first compound 8 µM): 0.616
relative viability (IA-LM; first compound 0.08 µM): 0.367
relative viability (IA-LM; first compound 0.8 µM): 0.326
relative viability (IA-LM; first compound 2.53 µM): 0.383
relative viability (IA-LM; first compound 8 µM): 0.249
relative viability (A-427; first compound 0.08 µM): 0.857
relative viability (A-427; first compound 0.8 µM): 0.862
relative viability (A-427; first compound 2.53 µM): 0.654
relative viability (A-427; first compound 8 µM): 0.656
relative viability (NCI-H2405; first compound 0.08 µM): 0.555
relative viability (NCI-H2405; first compound 0.8 µM): 0.59
relative viability (NCI-H2405; first compound 2.53 µM): 0.439
relative viability (NCI-H2405; first compound 8 µM): 0.323
relative viability (NCI-H441; first compound 0.08 µM): 0.437
relative viability (NCI-H441; first compound 0.8 µM): 0.549
relative viability (NCI-H441; first compound 2.53 µM): 0.476
relative viability (NCI-H441; first compound 8 µM): 0.505
relative viability (H3255; first compound 0.08 µM): 0.574
relative viability (H3255; first compound 0.8 µM): 0.62
relative viability (H3255; first compound 2.53 µM): 0.512
relative viability (H3255; first compound 8 µM): 0.525
relative viability (NCI-H1915; first compound 0.08 µM): 1.06
relative viability (NCI-H1915; first compound 0.8 µM): 1.08
relative viability (NCI-H1915; first compound 2.53 µM): 0.952
relative viability (NCI-H1915; first compound 8 µM): 0.919
relative viability (HCC-366; first compound 0.08 µM): 0.151
relative viability (HCC-366; first compound 0.8 µM): 0.203
relative viability (HCC-366; first compound 2.53 µM): 0.149
relative viability (HCC-366; first compound 8 µM): 0.127
relative viability (NCI-H1975; first compound 0.08 µM): 0.343
relative viability (NCI-H1975; first compound 0.8 µM): 0.332
relative viability (NCI-H1975; first compound 2.53 µM): 0.288
relative viability (NCI-H1975; first compound 8 µM): 0.288
relative viability (HARA; first compound 0.08 µM): 0.604
relative viability (HARA; first compound 0.8 µM): 0.586
relative viability (HARA; first compound 2.53 µM): 0.489
relative viability (HARA; first compound 8 µM): 0.653
relative viability (NCI-H2009; first compound 0.08 µM): 0.947
relative viability (NCI-H2009; first compound 0.8 µM): 1.09
relative viability (NCI-H2009; first compound 2.53 µM): 0.659
relative viability (NCI-H2009; first compound 8 µM): 0.679
relative viability (NCI-H650; first compound 0.08 µM): 0.939
relative viability (NCI-H650; first compound 0.8 µM): 1.1
relative viability (NCI-H650; first compound 2.53 µM): 1.06
relative viability (NCI-H650; first compound 8 µM): 0.896
relative viability (SK-LU-1; first compound 0.08 µM): 0.676
relative viability (SK-LU-1; first compound 0.8 µM): 0.667
relative viability (SK-LU-1; first compound 2.53 µM): 0.678
relative viability (SK-LU-1; first compound 8 µM): 0.541
relative viability (LXF-289; first compound 0.08 µM): 0.855
relative viability (LXF-289; first compound 0.8 µM): 0.794
relative viability (LXF-289; first compound 2.53 µM): 0.75
relative viability (LXF-289; first compound 8 µM): 0.819
relative viability (NCI-H460; first compound 0.08 µM): 0.377
relative viability (NCI-H460; first compound 0.8 µM): 0.409
relative viability (NCI-H460; first compound 2.53 µM): 0.476
relative viability (NCI-H460; first compound 8 µM): 0.48
relative viability (NCI-H2023; first compound 0.08 µM): 0.269
relative viability (NCI-H2023; first compound 0.8 µM): 0.242
relative viability (NCI-H2023; first compound 2.53 µM): 0.211
relative viability (NCI-H2023; first compound 8 µM): 0.243
relative viability (NCI-H596; first compound 0.08 µM): 0.389
relative viability (NCI-H596; first compound 0.8 µM): 0.432
relative viability (NCI-H596; first compound 2.53 µM): 0.481
relative viability (NCI-H596; first compound 8 µM): 0.357
